# Test results as given in patent US4835160A, “Derivatives of pyridoindole, having anti-tumor properties” (Sanofi, priority 1986, dated 1989).
# Assays:
# [1] = test system: leukemia P 388; test: Test of leukemia P 388; IP/IP, D1-5; assay type: in vivo, CDF1 hybrid mice; conditions: D1-D5; for Number of survivors: day D30; for T/C %: survival time
# Procedure, shortened: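 CDF1 hybrid mice received 10^6 P 388 cells intraperitoneally, then compound in distilled water by intraperitoneal route daily D1-D5, 10 mice per group, 5-fluorouracil as positive control. Activity judged as T/C survival time versus untreated controls, survivors counted at D30; T/C ≤85% or day 5 minus day 1 weight change ≤ −4 g counted as toxic.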
# [2] = in vivo; set-up: species or system female CDF1 hybrid mice; conditions: mouse, iv, 50 mg/kg
# Method: In addition the administration, to healthy female CDF1 hybrid mice, in a single injection by intravenous route with a perfusor, lasting 4 minutes, of the compounds under test in solution in physiological serum at a rate of 0.1 ml of solution per 10 g weight of the animals has enabled it to be established that the compounds are also well tolerated at a high dosage in these conditions.
# [3] = test system: leukemia P388; test: Test for leukemia P388, IP/IP, D1; assay type: in vivo, CDF1 hybrid mice; conditions: for Number of survivors: day D30; for T/C %: survival time
# Procedure, shortened: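 CDF1 hybrid mice inoculated i.p. on D0 with 10^6 P388 leukemia cells; compound in distilled water given i.p. once on D1, 10 mice per group. Activity as increase in survival time versus untreated controls (T/C); survivors counted on D30. 5-fluorouracil positive control under same conditions.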
# [4] = in vivo; set-up: species or system CDF1 hybrid mice; conditions: mouse, ip, 25 mg/kg
# Source text: The compounds of the invention benefit from a good tolerance and a weak toxicity.
# Thus the administration, to healthy CDF1 hybrid mice, in a single injection by intraperitoneal route, of the compounds under test, has enabled it to be established that the product is perfectly tolerated at a high dosage since the survival rate of the animals of the experiment was 100 out of 100 thirteen days after administration.
# [5] = test system: melanoma B 16; test: Test for melanoma B 16; assay type: in vivo, BDF1 hybrid mice; conditions: D1-D9; for Number of survivors: day D60; for T/C %: survival time
# Procedure, shortened: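 BDF1 mice inoculated i.p. with 0.5 ml B16 melanoma homogenate (1 g tumour in 10 ml physiological serum); compound given i.p. daily D1–D9, Cis-platine positive control under same conditions. Surviving animals counted on D60; activity as survival increase vs untreated controls (T/C), toxicity if T/C ≤85%.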
structure (smiles),measurement,setting,value
"Cc1cnc(NCCCN(C)C)c2c3cc(O)ccc3n(C)c12 [Derivative No. 14, 4,5-dimethyl 1(3-dimethylaminopropylamino)-8-hydroxy-5H-pyrido[4,3-b]indole]",Median day of survival,[1]; 2.5 mg/kg IP,19.25 days
same,Variation by weight (g),[1]; 2.5 mg/kg IP,+0.9 g
same,Number of survivors,[1]; 2.5 mg/kg IP,1/10
same,T/C %,[1]; 2.5 mg/kg IP,166%
same,Median day of survival,[1]; 5 mg/kg IP,22 days
same,Variation by weight,[1]; 5 mg/kg IP,-1.0 g
same,Number of survivors,[1]; 5 mg/kg IP,3/10
same,T/C %,[1]; 5 mg/kg IP,190%
same,Median day of survival,[1]; 10 mg/kg IP,11.75 days
same,Variation by weight,[1]; 10 mg/kg IP,-1.7 g
same,Number of survivors,[1]; 10 mg/kg IP,0/10
same,T/C %,[1]; 10 mg/kg IP,102%
same,Median day of survival,[1]; 20 mg/kg IP,7.4 days
same,Variation by weight,[1]; 20 mg/kg IP,-4.4 g
same,Number of survivors,[1]; 20 mg/kg IP,0/10
same,T/C %,[1]; 20 mg/kg IP,64%
same,survival at 192 h,[2],100%
same,Median day of survival,[3]; 5 mg/kg IP,19.75 days
same,Variation by weight,[3]; 5 mg/kg IP,-1.2 g
same,Number of survivors,[3]; 5 mg/kg IP,0/10
same,T/C %,[3]; 5 mg/kg IP,173%
same,Median day of survival,[3]; 10 mg/kg IP,19.0 days
same,Variation by weight,[3]; 10 mg/kg IP,-1.4 g
same,Number of survivors,[3]; 10 mg/kg IP,1/10
same,T/C %,[3]; 10 mg/kg IP,167%
same,Median day of survival,[3]; 20 mg/kg IP,18.75 days
same,Variation by weight,[3]; 20 mg/kg IP,-2.5 g
same,Number of survivors,[3]; 20 mg/kg IP,1/10
same,T/C %,[3]; 20 mg/kg IP,164%
same,survival at 312 h,[4],100%
same,Median day of survival,[5]; 1.25 mg/kg IP,29.75 days
same,Variation by weight (g),[5]; 1.25 mg/kg IP,+1.0 g
same,Number of survivors,[5]; 1.25 mg/kg IP,0/10
same,T/C %,[5]; 1.25 mg/kg IP,123%
same,Median day of survival,[5]; 2.5 mg/kg IP,32.6 days
same,Variation by weight (g),[5]; 2.5 mg/kg IP,+0.1 g
same,Number of survivors,[5]; 2.5 mg/kg IP,0/10
same,T/C %,[5]; 2.5 mg/kg IP,134%
same,Median day of survival,[5]; 5 mg/kg IP,50.0 days
same,Variation by weight,[5]; 5 mg/kg IP,-0.2 g
same,Number of survivors,[5]; 5 mg/kg IP,1/10
same,T/C %,[5]; 5 mg/kg IP,206%
same,Median day of survival,[5]; 10 mg/kg IP,11.75 days
same,Variation by weight,[5]; 10 mg/kg IP,-1.9 g
same,Number of survivors,[5]; 10 mg/kg IP,0/10
same,T/C %,[5]; 10 mg/kg IP,48%
